# Test results as given in patent US11214803B2, “Modulators of YAP1 expression” (Ionis Pharmaceuticals, Inc., priority 2019, dated 2022).
# Strand notation (5' to 3'): a small letter for the sugar, then the base; units joined by * are phosphorothioate-linked, units joined directly phosphodiester-linked; [ ] holds rarer units or linkages, { } end groups; capitals alone tell only the bases. e = 2'-O-(2-methoxyethyl) (MOE); k = constrained ethyl (cEt); [5mC] = 5-methylcytosine; d = 2'-deoxy (DNA); m = 2'-O-methyl
# Tested on: Yap1 mRNA
# Experiment: Antisense inhibition of human Yap1 in SNU-449 cells by modified oligonucleotides, single dose (Example 5, RTS36584)
# Assay type: cell-based
# Summary of the method: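 Values are Yap1 mRNA as percent of untreated control cells, measured by quantitative real-time RT-PCR using RTS36584 and normalised to total RNA by RIBOGREEN. Cells were SNU-449, dosed by free uptake at 2,000 nM for approximately 48 hours.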
# [1] = Table 42 (separate experiment), SNU-449 cells, 10,000 cells per well, free uptake, 2,000 nM modified oligonucleotide, approximately 48 hours, RTS36584, normalized to RIBOGREEN, Yap1 mRNA relative to untreated control cells
# [2] = Table 43 experiment, SNU-449 cells, 10,000 cells per well, free uptake, 2,000 nM, approximately 48 hours, RTS36584, Yap1 mRNA normalized to RIBOGREEN, relative to untreated control cells
# [3] = Table 39, SNU-449 cells, 10,000 cells per well, free uptake, 2,000 nM oligonucleotide, approx. 48 hours, RTS36584, normalized to RIBOGREEN, Yap1 mRNA relative to untreated control
# [4] = Table 52, Yap1 mRNA, modified oligonucleotides targeting SEQ ID NO: 1 and 2
# [5] = Yap1 mRNA, percent of untreated control, modified oligonucleotides targeting SEQ ID NO: 1 and 2, Table 47
# [6] = Table 50, Yap1 mRNA remaining as percent of untreated control (UT), SNU-449 cells, single dose
# [7] = Table 45, Yap1 mRNA as percent of untreated control, SNU-449 cells, single dose
# [8] = Table 40 (separate experiment), SNU-449 cells, 10,000 cells per well, free uptake, 2,000 nM oligonucleotide, approx. 48 hours, RTS36584, normalized to RIBOGREEN, Yap1 mRNA relative to untreated control
# [9] = Table 48, Yap1 mRNA level relative to untreated control, modified oligonucleotides targeting SEQ ID NO.: 1 and 2
# [10] = Table 44 experiment, SNU-449 cells, 10,000 cells per well, free uptake, 2,000 nM, approximately 48 hours, RTS36584, Yap1 mRNA normalized to RIBOGREEN, relative to untreated control cells
# [11] = Table 41, SNU-449 cells, 10,000 cells per well, free uptake, 2,000 nM modified oligonucleotide, approximately 48 hours, RTS36584, normalized to RIBOGREEN, Yap1 mRNA relative to untreated control cells
# [12] = Table 46, Yap1 mRNA as percent of untreated control, SNU-449 cells, single dose
substance,measurement,setting,value
1198238 (kA*kT*dA*dG*dT*dG*d[5mC]*dT*dT*dT*dG*eG*eA*eA*kG*kA) [Compound 1198238],YAP1 (% UTC),[1],88 % UTC
1198237 (AGTGCTTTGGAAGATC; chemistry not fully specified) [Compound 1198237],YAP1 (% UTC),[1],51 % UTC
1198469 (antisense kA*kT*dT*dA*dG*dA*dG*dT*dA*dT*dG*eT*kG*eG*k[5mC]*eA) [Compound 1198469],YAP1 (% UTC),[2],23 % UTC
1198377 (kA*dT*dG*dG*dA*dA*dA*dT*dT*dG*dT*k[5mC]*eT*k[5mC]*eA*kT; antisense) [Compound 1198377],YAP1 (% UTC),[3],30 % UTC
1200810 (kA*kA*k[5mC]*dA*d[5mC]*mU*dG*dA*dG*dG*dT*dA*dT*kA*kA*k[5mC]; antisense) [Compound 1200810],YAP1 (% UT),[4],94 % UT
1197225 (antisense kG*kA*k[5mC]*dT*dA*dA*dG*dT*dA*dA*dG*dG*dT*kT*kT*k[5mC]) [Compound 1197225],YAP1 (% UT),[5],46 % UT
1197292 (kA*k[5mC]*kT*dT*mU*dT*dA*d[5mC]*dA*dT*dT*dA*dG*kG*kA*kA; antisense) [Compound 1197292],YAP1 (% UT),[6],84 % UT
1198564 (antisense kA*kA*k[5mC]*dA*d[5mC]*dT*dG*dA*dG*dG*dT*dA*kT*kA*kA*e[5mC]) [Compound 1198564],YAP1 (% UT),[6],44 % UT
1198270 (kT*kA*dA*dA*dG*dT*dG*dT*dA*dT*dG*eT*e[5mC]*eA*kG*kA; antisense) [Compound 1198270],YAP1 (% UTC),[2],52 % UTC
1198971 (k[5mC]*kT*dA*dA*dG*dT*dA*dA*dG*dG*dT*kT*dT*k[5mC]*d[5mC]*k[5mC]; antisense) [Compound 1198971],YAP1 (% UTC),[7],31 % UTC
1198447 (kT*dA*dA*dG*dG*dT*dT*dT*d[5mC]*d[5mC]*d[5mC]*kA*eG*kA*eT*kT; antisense) [Compound 1198447],YAP1 (% UTC),[3],63 % UTC
1198922 (kG*kG*dA*dA*dG*dA*dT*d[5mC]*dT*dG*dA*kA*dA*k[5mC]*dT*k[5mC]; antisense) [Compound 1198922],YAP1 (% UTC),[7],59 % UTC
1198803 (antisense kT*eT*kA*dG*dA*d[5mC]*dT*dA*dA*dG*dT*dA*eA*eG*kG*kT) [Compound 1198803],YAP1 (% UTC),[8],62 % UTC
1200846 (kG*kA*k[5mC]*dA*dA*mC*dT*d[5mC]*dT*dT*dA*dT*dA*kT*kG*kG; antisense) [Compound 1200846],YAP1 (% UT),[4],38 % UT
1198427 (k[5mC]*dA*dA*d[5mC]*dT*d[5mC]*dT*dT*dA*dT*dA*kT*eG*kG*eT*kT; antisense) [Compound 1198427],YAP1 (% UTC),[8],62 % UTC
1198928 (kG*kT*dG*d[5mC]*dT*dT*dT*dG*dG*dA*dA*kG*dA*kT*d[5mC]*kT; antisense) [Compound 1198928],YAP1 (% UTC),[7],28 % UTC
1200833 (kG*kA*kT*dT*dT*mA*dG*dG*dA*dT*dG*d[5mC]*dA*kT*kG*kG; antisense) [Compound 1200833],YAP1 (% UT),[4],31 % UT
1198325 (kA*kG*kG*dA*dT*dG*d[5mC]*dA*dT*dG*dG*dT*kT*eT*kT*eT; antisense) [Compound 1198325],YAP1 (% UT),[9],34 % UT
1197181 (antisense kT*kT*kA*d[5mC]*dA*dT*dT*dA*dG*dG*dA*dA*d[5mC]*kA*kA*kG) [Compound 1197181],YAP1 (% UT),[5],87 % UT
1198240 (kT*kT*dA*dG*dG*dA*dT*dG*d[5mC]*dA*dT*eG*eG*eT*kT*kT) [Compound 1198240],YAP1 (% UTC),[1],43 % UTC
1198460 (antisense kG*kA*dA*dA*dT*dT*dG*dT*d[5mC]*dT*d[5mC]*eA*kT*eG*k[5mC]*e[5mC]) [Compound 1198460],YAP1 (% UTC),[2],17 % UTC
1200793 (kA*kG*kT*dA*dT*mG*dT*dG*dG*d[5mC]*dA*dA*dT*kA*kA*kT; antisense) [Compound 1200793],YAP1 (% UT),"Table 51, Yap1 mRNA remaining as percent of untreated control (UT), SNU-449 cells, single dose",31 % UT
1198536 (kT*kA*dA*dG*dT*dA*dA*dG*dG*dT*dT*eT*k[5mC]*e[5mC]*k[5mC]*eA; antisense) [Compound 1198536],YAP1 (% UTC),[10],20 % UTC
1009396 (k[5mC]*kA*k[5mC]*dT*dG*dA*dG*dG*dT*dA*dT*dA*dA*k[5mC]*kT*kG; antisense) [Compound 1009396],YAP1 (% UT),[9],41 % UT
1198733 (kG*eG*kT*dA*dT*dA*dA*d[5mC]*dT*dG*dG*dG*e[5mC]*eA*kA*kA; antisense) [Compound 1198733],YAP1 (% UTC),[11],47 % UTC
1198518 (kT*kA*dA*dT*dA*dT*dT*dG*d[5mC]*dA*dA*eT*k[5mC]*eT*kG*eT; antisense) [Compound 1198518],YAP1 (% UTC),[10],71 % UTC
1074798 (kG*k[5mC]*kT*dT*dT*dG*dG*dA*dA*dG*dA*dT*d[5mC]*kT*kG*kA) [Compound 1074798],YAP1 (% UT),[5],19 % UT
1197188 (antisense kT*kT*kG*dG*dA*dA*dG*dA*dT*d[5mC]*dT*dG*dA*kA*kA*k[5mC]) [Compound 1197188],YAP1 (% UT),[5],96 % UT
119825 4 (kA*kA*d[5mC]*dT*d[5mC]*dT*dT*dA*dT*dA*dT*eG*eG*eT*kT*kT; antisense),YAP1 (% UTC),[2],95 % UTC
1198685 (antisense k[5mC]*kA*dA*d[5mC]*dT*d[5mC]*dT*dT*dA*dT*dA*dT*kG*eG*kT*eT) [Compound 1198685],YAP1 (% UTC),[1],70 % UTC
1198236 (kG*kT*dG*d[5mC]*dT*dT*dT*dG*dG*dA*dA*eG*eA*eT*k[5mC]*kT) [Compound 1198236],YAP1 (% UTC),[1],24 % UTC
1198895 (kG*kG*dA*dA*dA*dT*dT*dG*dT*d[5mC]*dT*k[5mC]*dA*kT*dG*k[5mC]; antisense) [Compound 1198895],YAP1 (% UTC),[7],22 % UTC
1198757 (kA*eG*kT*dG*d[5mC]*dT*dT*dT*dG*dG*dA*dA*eG*eA*kT*k[5mC]; antisense) [Compound 1198757],YAP1 (% UTC),[8],4 % UTC
1198542 (antisense kT*kG*kT*d[5mC]*dT*d[5mC]*dA*dT*dG*d[5mC]*d[5mC]*dT*kT*kA*kT*eA) [Compound 1198542],YAP1 (% UT),"Table 49, Yap1 mRNA level relative to untreated control, modified oligonucleotides targeting SEQ ID NO.: 1 and 2",23 % UT
1198817 (antisense kA*kT*dT*dA*dG*dA*dG*dT*dA*dT*dG*kT*eG*kG*e[5mC]*kA) [Compound 1198817],YAP1 (% UT),[12],AksTksTdsAdsGdsAdsGdsTdsAdsTds43 % UT
1198282 (kA*kG*dA*d[5mC]*dT*dA*dA*dG*dT*dA*dA*eG*eG*eT*kT*kT; antisense) [Compound 1198282],YAP1 (% UTC),[2],58 % UTC
1198296 (kT*kT*kA*dG*dA*dG*dT*dA*dT*dG*dT*dG*kG*e[5mC]*kA*eA; antisense) [Compound 1198296],YAP1 (% UT),[9],29 % UT
1097037 (antisense kA*kG*kA*dT*dT*dT*dA*dG*dG*dA*dT*dG*d[5mC]*kA*kT*kG) [Compound 1097037],YAP1 (% UT),[5],38 % UT
1198687 (antisense kA*kT*dT*dG*d[5mC]*dA*dA*dT*d[5mC]*dT*dG*dT*k[5mC]*eT*kG*eA) [Compound 1198687],YAP1 (% UTC),[11],55 % UTC
1198610 (antisense kT*kG*kT*dA*dT*dG*dT*d[5mC]*dA*dG*dA*dA*kG*kA*kG*eT) [Compound 1198610],YAP1 (% UT),[6],TksGksTksAdsTdsGdsTds^mCdsAdsGds4 % UT
1197199 (antisense kA*kT*kA*dT*dG*dG*dT*dT*dT*dT*dG*dT*dG*kT*kG*kT) [Compound 1197199],YAP1 (% UT),[9],75 % UT
1198652 (kT*kT*dT*dT*dA*d[5mC]*dA*dT*dT*dA*dG*dG*kA*eA*k[5mC]*eA; antisense) [Compound 1198652],YAP1 (% UTC),[11],68 % UTC
1198876 (kT*kA*dA*dA*dG*dT*dG*dT*dA*dT*dG*kT*e[5mC]*kA*eG*kA; antisense) [Compound 1198876],YAP1 (% UT),[5],31 % UT
1095510 (antisense k[5mC]*kT*dG*dA*dG*dG*dT*dA*dT*dA*dA*k[5mC]*dT*kG*dG*kG) [Compound 1095510],YAP1 (% UTC),[7],35 % UTC
1198277 (kA*kA*dG*dT*dA*dA*dG*dG*dT*dT*dT*e[5mC]*e[5mC]*e[5mC]*kA*kG; antisense) [Compound 1198277],YAP1 (% UTC),[2],32 % UTC
1198436 (kT*dA*dT*dG*dT*dA*dA*dT*dA*dT*dT*kG*e[5mC]*kA*eA*kT; antisense) [Compound 1198436],YAP1 (% UTC),[3],69 % UTC
1198852 (kT*k[5mC]*dA*dG*dA*dT*dT*dT*dA*dG*dG*kA*eT*kG*e[5mC]*kA; antisense) [Compound 1198852],YAP1 (% UT),[12],41 % UT
1198747 (kA*eG*k[5mC]*dA*d[5mC]*dT*dT*dT*dT*dA*d[5mC]*dA*eT*eT*kA*kG; antisense) [Compound 1198747],YAP1 (% UTC),[8],38 % UTC
1198776 (kG*eA*k[5mC]*dA*dA*d[5mC]*dT*d[5mC]*dT*dT*dA*dT*eA*eT*kG*kG) [Compound 1198776],YAP1 (% UTC),[11],57 % UTC
